Literature values in patent EP1479382A1, “Oral pharmaceutical compositions containing taxanes and methods for treatment employing the same” (IVAX Research, Inc., priority 1999, dated 2000).
Read-outs that look alike come from different tables or passages of the source.

Legend:
[1] = test system: tubulin
[2] = test system: protein isoprenylation

Question: For `CC(=O)O[C@H]1C(=O)[C@@]2(C)[C@H]([C@H](OC(=O)c3ccccc3)[C@]3(O)C[C@H](OC(=O)[C@H](O)[C@@H](NC(=O)c4ccccc4)c4ccccc4)C(C)=C1C3(C)C)[C@]1(OC(C)=O)CO[C@@H]1C[C@@H]2O` [paclitaxel], which “inhibition of tubulin disassembly occurs at levels of” value [1] is on record?
Answer: about 0.1 µM

Question: And the “inhibition of tubulin disassembly occurs at levels of” value ([1]; same level expressed in ng/ml)?
Answer: about 85 ng/ml

Question: What about the “inhibition of protein isoprenylation occurs at levels of” value [2] of the same compound?
Answer: about 0.03 µM

Question: What about the “inhibition of protein isoprenylation occurs at levels of” value ([2]; same level expressed in ng/ml) of the same compound?
Answer: about 25 ng/ml
